{"source": "paper PMC2806030", "about": "“Inhibition of mammalian S6 kinase by resveratrol suppresses autophagy” (Aging (Albany NY), 2009)", "key": {"Pim-2": {"target": "T1, Pim-2 (Homo sapiens, UniProt Q9P1W9)", "T1 construct": "gene PIM2", "test": "in vitro kinase screen (Upstate KinaseProfiler), single dose […]", "type": "biochemical"}, "NLK [1]": {"target": "T2, NLK (Homo sapiens, UniProt Q9UBE8)", "T2 sequence (Q9UBE8 whole entry)": "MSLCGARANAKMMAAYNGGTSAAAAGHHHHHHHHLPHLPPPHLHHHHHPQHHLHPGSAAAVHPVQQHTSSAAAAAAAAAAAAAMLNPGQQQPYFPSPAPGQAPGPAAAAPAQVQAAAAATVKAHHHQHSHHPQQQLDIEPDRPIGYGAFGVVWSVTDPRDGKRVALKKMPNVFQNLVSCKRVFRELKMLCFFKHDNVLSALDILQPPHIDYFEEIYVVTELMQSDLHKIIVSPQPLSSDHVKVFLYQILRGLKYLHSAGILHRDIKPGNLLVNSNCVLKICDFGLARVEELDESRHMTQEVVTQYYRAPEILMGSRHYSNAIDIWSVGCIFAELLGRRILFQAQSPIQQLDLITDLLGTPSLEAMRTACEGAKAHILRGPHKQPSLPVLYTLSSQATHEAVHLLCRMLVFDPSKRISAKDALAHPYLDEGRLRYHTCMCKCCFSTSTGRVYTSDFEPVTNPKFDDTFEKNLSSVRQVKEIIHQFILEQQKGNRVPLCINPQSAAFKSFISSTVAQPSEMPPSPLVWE", "test": "in vitro kinase screen (Upstate KinaseProfiler), single dose […]", "type": "biochemical"}, "CDK6/cyclinD3(h)": {"target": "CDK6/cyclinD3(h) (Homo sapiens, UniProt Q00534)", "sequence (Q00534 whole entry)": "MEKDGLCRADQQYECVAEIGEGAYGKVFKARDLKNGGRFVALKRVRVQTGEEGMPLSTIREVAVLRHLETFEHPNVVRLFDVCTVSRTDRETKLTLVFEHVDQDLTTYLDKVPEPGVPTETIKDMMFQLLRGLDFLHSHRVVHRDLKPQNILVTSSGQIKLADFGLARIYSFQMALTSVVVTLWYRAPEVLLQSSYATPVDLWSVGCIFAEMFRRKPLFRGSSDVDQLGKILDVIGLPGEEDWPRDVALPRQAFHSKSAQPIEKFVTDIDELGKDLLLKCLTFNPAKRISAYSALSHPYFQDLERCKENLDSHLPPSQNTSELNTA", "sequence (P30281 whole entry partner)": "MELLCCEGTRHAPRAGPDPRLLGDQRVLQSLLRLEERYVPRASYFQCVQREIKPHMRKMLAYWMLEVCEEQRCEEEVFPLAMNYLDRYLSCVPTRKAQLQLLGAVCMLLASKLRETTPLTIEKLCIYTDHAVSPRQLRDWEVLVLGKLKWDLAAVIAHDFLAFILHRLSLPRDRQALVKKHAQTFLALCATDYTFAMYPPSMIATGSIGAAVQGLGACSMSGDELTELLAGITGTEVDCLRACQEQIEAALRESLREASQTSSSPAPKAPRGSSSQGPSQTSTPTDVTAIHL", "test": "biochemical", "set-up": "Upstate KinaseProfiler in vitro kinase activity assay, per cent of DMSO control", "conditions": "read-out: Activity (% of Control)", "experimental": "(§1) Kinase profile and kinase assay. A Kinase profile against 100 kinases listed for resveratrol at 20 μM was generated utilizing Upstate's KinaseProfiler™ service. Assay protocols for each kinase are available from Upstate (Lake Placid, NY). In vitro kinase assay was performed as described previously. Briefly, HEK293 cells were transfected with HA-S6K1 wt, HA-S6K1 K100R, or vector as indicated. Cells were treated with 1 μg/ml insulin for 10 minutes prior to harvesting in PBS + 0.5% NP-40 + protease and phosphatase inhibitors. 125 μg of lysate per sample was immunoprecipitated using 0.5 μg/sample of anti-HA High-Affinity (Roche, Basel Switzerland). Beads from immunoprecipitations were washed three times in lysis buffer and once in kinase buffer, and kinase assays were performed with recombinant GST-S6 as substrate (1 μg per assay). In the indicated lanes varying doses of resveratrol or DMSO control were added to the reaction prior to addition of the GST-S6 substrate. All samples were subjected to SDS-PAGE, and 32P incorporation was quantified by using a Bio-Rad (Hercules, CA) Phosphor-Imager and subsequent analysis with ImageJ (NIH).  Figure 4. Resveratrol inhibits S6K1 in vitro. (A) Structural similarity between resveratrol and quercetin, a known kinase inhibitor. (B) Kinase inhibition profile for resveratrol at 20 μM obtained using KinaseProfiler™ (Upstate). Dashed line represents 100% activity as compared to control. Black filled-in bar on the graph indicates S6K1. Complete data set is provided in Supplementary Table 1. Error bars represent s.d.m. (C) Phosphorylation of recombinant GST-tagged S6 by immunoprecipitated HA-S6K1 under increasing concentrations of resveratrol (Res). Autoradiograph depicts S6K1 phosphorylation of GST-S6. (D) Average of three separate kinase assay experiments as performed in (C). Densitometry was performed using NIH ImageJ. Error bars represent s.e.m. […] Therefore, we hypothesized that the effect of resveratrol on autophagy could be related to inhibition of one or more upstream kinases. To test this, we performed an in vitro kinase screen and determined an inhibition profile for resveratrol. […] With the exception of S6K1, these kinases play primary roles in the hematopoietic system, and were thus viewed as unlikely to have been responsible for the effect we were studying. […] On the other hand, S6K1 is known to play a requisite role in the regulation of autophagy in Drosophila, making it a promising candidate for the in vivo target of resveratrol that is responsible for inhibition of autophagy."}, "NEK3(h)": {"target": "NEK3(h) (Homo sapiens, UniProt P51956)", "sequence (P51956 whole entry)": "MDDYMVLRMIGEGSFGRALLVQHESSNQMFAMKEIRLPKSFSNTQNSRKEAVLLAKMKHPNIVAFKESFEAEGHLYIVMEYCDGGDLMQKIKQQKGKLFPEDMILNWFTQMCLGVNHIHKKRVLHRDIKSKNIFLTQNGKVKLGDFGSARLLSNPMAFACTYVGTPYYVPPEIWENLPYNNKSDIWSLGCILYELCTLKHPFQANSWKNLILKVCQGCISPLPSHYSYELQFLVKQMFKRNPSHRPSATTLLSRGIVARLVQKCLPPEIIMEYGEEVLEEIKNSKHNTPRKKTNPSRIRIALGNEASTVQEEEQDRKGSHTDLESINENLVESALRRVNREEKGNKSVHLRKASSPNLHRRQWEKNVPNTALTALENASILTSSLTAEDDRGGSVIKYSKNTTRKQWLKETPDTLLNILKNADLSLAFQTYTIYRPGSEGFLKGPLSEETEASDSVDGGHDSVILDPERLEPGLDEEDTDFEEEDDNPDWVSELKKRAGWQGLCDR", "test": "biochemical", "set-up": "Upstate KinaseProfiler in vitro kinase activity assay, per cent of DMSO control", "conditions": "read-out: Activity (% of Control)", "experimental": "as §1"}, "GSK3ß(h)": {"target": "T3, GSK3ß(h) (Homo sapiens, UniProt P49841)", "T3 construct": "gene GSK3B", "test": "biochemical", "set-up": "Upstate KinaseProfiler in vitro kinase activity assay, per cent of DMSO control", "conditions": "read-out: Activity (% of Control)", "experimental": "as §1"}, "IKKß(h)": {"target": "T4, IKKß(h) (Homo sapiens, UniProt O14920)", "T4 construct": "gene IKBKB", "test": "biochemical", "set-up": "Upstate KinaseProfiler in vitro kinase activity assay, per cent of DMSO control", "conditions": "read-out: Activity (% of Control)", "experimental": "as §1"}, "SAPK3(h)": {"target": "T5, SAPK3(h) (Homo sapiens, UniProt P53778)", "T5 construct": "gene MAPK12", "test": "biochemical", "set-up": "Upstate KinaseProfiler in vitro kinase activity assay, per cent of DMSO control", "conditions": "read-out: Activity (% of Control)", "experimental": "as §1"}, "SAPK4(h)": {"target": "T6, SAPK4(h) (Homo sapiens, UniProt O15264)", "T6 construct": "gene MAPK13", "test": "biochemical", "set-up": "Upstate KinaseProfiler in vitro kinase activity assay, per cent of DMSO control", "conditions": "read-out: Activity (% of Control)", "experimental": "as §1"}, "SGK(h)": {"target": "T7, SGK(h) (Homo sapiens, UniProt O00141)", "T7 construct": "gene SGK1", "test": "biochemical", "set-up": "Upstate KinaseProfiler in vitro kinase activity assay, per cent of DMSO control", "conditions": "read-out: Activity (% of Control)", "experimental": "as §1"}, "PAK4(h)": {"target": "PAK4(h) (Homo sapiens, UniProt O96013)", "sequence (O96013 whole entry)": "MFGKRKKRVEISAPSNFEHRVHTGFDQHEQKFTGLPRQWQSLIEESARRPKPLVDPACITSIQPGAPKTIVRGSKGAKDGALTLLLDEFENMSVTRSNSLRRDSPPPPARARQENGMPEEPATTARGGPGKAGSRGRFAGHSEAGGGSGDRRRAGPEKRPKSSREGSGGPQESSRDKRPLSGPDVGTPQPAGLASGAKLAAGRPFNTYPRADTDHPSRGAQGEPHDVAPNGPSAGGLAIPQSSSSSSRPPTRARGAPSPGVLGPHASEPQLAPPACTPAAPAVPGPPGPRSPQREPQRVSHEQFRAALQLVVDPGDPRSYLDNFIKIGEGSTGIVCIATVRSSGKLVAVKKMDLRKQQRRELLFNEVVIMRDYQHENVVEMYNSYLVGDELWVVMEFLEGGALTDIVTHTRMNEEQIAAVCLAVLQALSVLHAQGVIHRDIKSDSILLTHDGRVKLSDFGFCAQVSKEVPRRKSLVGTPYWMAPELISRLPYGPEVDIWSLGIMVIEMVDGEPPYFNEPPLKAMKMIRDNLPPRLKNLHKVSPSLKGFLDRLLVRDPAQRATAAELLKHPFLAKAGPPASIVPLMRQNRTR", "test": "biochemical", "set-up": "Upstate KinaseProfiler in vitro kinase activity assay, per cent of DMSO control", "conditions": "read-out: Activity (% of Control)", "experimental": "as §1"}, "SIK(h)": {"target": "T8, SIK(h) (Homo sapiens, UniProt P57059)", "T8 construct": "gene SIK1", "test": "biochemical", "set-up": "Upstate KinaseProfiler in vitro kinase activity assay, per cent of DMSO control", "conditions": "read-out: Activity (% of Control)", "experimental": "as §1"}, "SAPK2a(T106M)(h)": {"target": "T9, SAPK2a(T106M)(h) (Homo sapiens, UniProt Q16539, T106M)", "T9 construct": "gene MAPK14", "T9 sequence (Q16539 whole entry T106M)": "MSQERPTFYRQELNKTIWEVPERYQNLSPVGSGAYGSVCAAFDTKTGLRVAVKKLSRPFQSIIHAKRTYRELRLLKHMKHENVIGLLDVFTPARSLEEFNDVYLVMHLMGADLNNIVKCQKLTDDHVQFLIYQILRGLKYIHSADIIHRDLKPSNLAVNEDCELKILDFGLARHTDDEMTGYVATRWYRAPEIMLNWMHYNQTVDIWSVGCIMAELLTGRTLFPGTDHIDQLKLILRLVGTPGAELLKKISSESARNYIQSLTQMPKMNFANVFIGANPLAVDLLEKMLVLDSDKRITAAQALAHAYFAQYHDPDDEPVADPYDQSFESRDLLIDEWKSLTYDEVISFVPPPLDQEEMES", "test": "biochemical", "set-up": "Upstate KinaseProfiler in vitro kinase activity assay, per cent of DMSO control", "conditions": "read-out: Activity (% of Control)", "experimental": "as §1"}, "MSK1(h)": {"target": "T10, MSK1(h) (Homo sapiens, UniProt O75582)", "T10 construct": "gene RPS6KA5", "test": "biochemical", "set-up": "Upstate KinaseProfiler in vitro kinase activity assay, per cent of DMSO control", "conditions": "read-out: Activity (% of Control)", "experimental": "as §1"}, "CDK3/cyclinE(h)": {"target": "CDK3/cyclinE(h) (Homo sapiens, UniProt Q00526)", "sequence (Q00526 whole entry)": "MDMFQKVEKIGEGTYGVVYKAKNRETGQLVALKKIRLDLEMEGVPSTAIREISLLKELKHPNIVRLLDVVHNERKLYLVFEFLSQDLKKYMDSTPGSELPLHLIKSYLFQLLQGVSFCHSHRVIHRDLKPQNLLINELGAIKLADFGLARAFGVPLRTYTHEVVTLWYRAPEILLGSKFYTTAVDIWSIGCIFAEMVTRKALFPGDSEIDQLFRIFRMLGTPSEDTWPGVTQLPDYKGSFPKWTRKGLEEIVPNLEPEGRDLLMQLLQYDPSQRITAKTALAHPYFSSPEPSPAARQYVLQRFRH", "sequence (P24864 whole entry partner)": "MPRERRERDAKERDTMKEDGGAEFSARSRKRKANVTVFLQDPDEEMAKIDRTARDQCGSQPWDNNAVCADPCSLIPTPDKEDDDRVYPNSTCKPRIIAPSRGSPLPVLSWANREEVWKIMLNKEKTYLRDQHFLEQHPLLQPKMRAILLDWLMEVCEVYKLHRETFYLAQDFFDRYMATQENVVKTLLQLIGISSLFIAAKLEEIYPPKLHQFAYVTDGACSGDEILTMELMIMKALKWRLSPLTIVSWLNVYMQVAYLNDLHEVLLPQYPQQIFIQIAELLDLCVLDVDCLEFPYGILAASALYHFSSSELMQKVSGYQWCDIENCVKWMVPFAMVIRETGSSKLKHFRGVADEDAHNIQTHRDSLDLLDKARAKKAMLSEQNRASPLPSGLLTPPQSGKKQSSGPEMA", "test": "biochemical", "set-up": "Upstate KinaseProfiler in vitro kinase activity assay, per cent of DMSO control", "conditions": "read-out: Activity (% of Control)", "experimental": "as §1"}, "PKBα(h)": {"target": "T11, PKBα(h) (Homo sapiens, UniProt P31749)", "T11 construct": "gene AKT1", "test": "biochemical", "set-up": "Upstate KinaseProfiler in vitro kinase activity assay, per cent of DMSO control", "conditions": "read-out: Activity (% of Control)", "experimental": "as §1"}, "p70S6K(h)": {"target": "T12, p70S6K(h) (Homo sapiens, UniProt P23443)", "T12 construct": "gene RPS6KB1", "test": "biochemical", "set-up": "Upstate KinaseProfiler in vitro kinase activity assay, per cent of DMSO control", "conditions": "read-out: Activity (% of Control)", "experimental": "as §1"}, "NLK [2]": {"target": "T2, NLK", "test": "biochemical", "set-up": "Upstate KinaseProfiler in vitro kinase activity assay, per cent of DMSO control", "conditions": "read-out: Activity (% of Control)", "experimental": "as §1"}, "Pim-1": {"target": "T13, Pim-1 (Homo sapiens, UniProt P11309)", "T13 construct": "gene PIM1", "test": "in vitro kinase screen (Upstate KinaseProfiler), single dose […]", "type": "biochemical"}, "p70 S6 kinase (S6K1)": {"target": "T14, p70 S6 kinase (S6K1) (Rattus norvegicus, UniProt P67999)", "T14 construct": "gene Rps6kb1; HA-tagged S6K1 wt immunoprecipitated from HEK293 cells", "T14 sequence (P67999 24-525)": "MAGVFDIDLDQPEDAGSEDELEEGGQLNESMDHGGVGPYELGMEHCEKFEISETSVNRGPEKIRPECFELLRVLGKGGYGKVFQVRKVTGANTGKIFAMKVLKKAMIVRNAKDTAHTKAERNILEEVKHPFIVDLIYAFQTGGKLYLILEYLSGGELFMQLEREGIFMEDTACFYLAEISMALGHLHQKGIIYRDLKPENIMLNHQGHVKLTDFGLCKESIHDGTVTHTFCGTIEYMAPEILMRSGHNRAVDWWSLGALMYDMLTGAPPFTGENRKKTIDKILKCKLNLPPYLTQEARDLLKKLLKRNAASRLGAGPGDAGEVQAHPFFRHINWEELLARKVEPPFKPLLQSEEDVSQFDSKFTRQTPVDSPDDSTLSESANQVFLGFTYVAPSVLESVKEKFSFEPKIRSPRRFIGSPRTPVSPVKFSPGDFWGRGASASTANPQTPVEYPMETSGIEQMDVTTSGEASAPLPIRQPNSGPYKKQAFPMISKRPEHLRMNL", "test": "in vitro […] kinase assay with immunoprecipitated HA-S6K1 and GST-S6 substrate; also KinaseProfiler screen at […]", "type": "biochemical"}}, "data": [{"smiles": "Oc1ccc(/C=C/c2cc(O)cc(O)c2)cc1", "note": "[Res, resveratrol]", "values": [{"measurement": "in vitro kinase screen (Upstate KinaseProfiler), single dose 20 μM", "setting": "Pim-2", "value": "Jak2, NLK, p70 S6 kinase (S6K1), Pim-1, and Pim-2 emerged as potential targets of resveratrol"}, {"measurement": "in vitro kinase screen (Upstate KinaseProfiler), single dose 20 μM", "setting": "NLK [1]", "value": "Jak2, NLK, p70 S6 kinase (S6K1), Pim-1, and Pim-2 emerged as potential targets of resveratrol"}, {"measurement": "remaining activity at 20 µM", "setting": "CDK6/cyclinD3(h)", "value": "55 ± 2", "unit": "%"}, {"measurement": "remaining activity at 20 µM", "setting": "NEK3(h)", "value": "96 ± 8", "unit": "%"}, {"measurement": "remaining activity at 20 µM", "setting": "GSK3ß(h)", "value": 92, "unit": "%"}, {"measurement": "remaining activity at 20 µM", "setting": "IKKß(h)", "value": "116 ± 2", "unit": "%"}, {"measurement": "remaining activity at 20 µM", "setting": "SAPK3(h)", "value": "110 ± 5", "unit": "%"}, {"measurement": "remaining activity at 20 µM", "setting": "SAPK4(h)", "value": "92 ± 4", "unit": "%"}, {"measurement": "remaining activity at 20 µM", "setting": "SGK(h)", "value": "86 ± 13", "unit": "%"}, {"measurement": "remaining activity at 20 µM", "setting": "PAK4(h)", "value": "103 ± 4", "unit": "%"}, {"measurement": "remaining activity at 20 µM", "setting": "SIK(h)", "value": "76 ± 1", "unit": "%"}, {"measurement": "remaining activity at 20 µM", "setting": "SAPK2a(T106M)(h)", "value": "102 ± 2", "unit": "%"}, {"measurement": "remaining activity at 20 µM", "setting": "MSK1(h)", "value": "58 ± 1", "unit": "%"}, {"measurement": "remaining activity at 20 µM", "setting": "CDK3/cyclinE(h)", "value": "75 ± 4", "unit": "%"}, {"measurement": "remaining activity at 20 µM", "setting": "PKBα(h)", "value": "94 ± 2", "unit": "%"}, {"measurement": "remaining activity at 20 µM", "setting": "p70S6K(h)", "value": "21 ± 1", "unit": "%"}, {"measurement": "remaining activity at 20 µM", "setting": "NLK [2]", "value": "30 ± 2", "unit": "%"}, {"measurement": "in vitro kinase screen (Upstate KinaseProfiler), single dose 20 μM", "setting": "Pim-1", "value": "Jak2, NLK, p70 S6 kinase (S6K1), Pim-1, and Pim-2 emerged as potential targets of resveratrol"}, {"measurement": "IC50", "setting": "p70 S6 kinase (S6K1)", "value": "~25", "unit": "µM"}]}]}
